{"source": "patent US9339549B2", "about": "“Cationic graft-copolymer for drug delivery system” (priority 2013, dated 2016)", "key": {"[1]": {"system": "NIH/3T3 cells (mouse embryonic fibroblast cell line)", "assay": "MTT test using NIH/3T3 cells", "type": "cell-based", "conditions": "incubation 50 hours at 37° C.", "protocol": "Following procedure by MTT assay of DESCRIPTION OF EMBODIMENTS (4), after incubation of NIH/3T3 cells (mouse embryonic fibroblast cell line) for 50 hours at 37° C., cell viability was examined.\nThis test is a quantitative colorimetric method to determine cell proliferation. It utilizes the yellow tetrazolium salt [3-(4,5-Dimethylthiazol-2-yl)-2,5-diphenyltetrazolium-bromide] which is metabolized by mitochondrial succinic dehydrogenase activity of proliferating cells to yield a purple formazan reaction product.\nThe formazan is then solubilized by isopropyl alcohol, and the concentration determined by optical density at 570 nm and cell survival was calculated using the following formula: Cell survival (%)=((As−Ab)/(Ac−Ab))×100\nWhere, As=absorbance of the sample, Ac=absorbance of the control well […] and Ab=absorbance of the blank well.\n1. Plate cells into 96-well tissue culture plates. Cells should be seeded at densities of 10,000 cells per well since they will reach optimal population densities within 24 to 48 hours.\n2. Carry out the experiment by adding DDMC/PTX or PTX into appropriate well. The final volume of tissue culture medium in each well is 0.1 mL, and the medium may contain up to 10% Fetal Bovine Serum.\n3. Use one vial of MTT solution for each 96-well plate assay.\n4. Add 10 μL MTT solution to each well. […]\n7. Read absorbance at 570 nm cell survival (%)=((As−Ab)/(Ac−Ab))×100"}, "[2]": {"system": "B16F10 melanoma cells", "assay": "Anti-tumor effects and survival in B16F10 tumor-bearing C57BL/6 mice", "type": "in vivo, mouse", "protocol": "In vivo analysis for melanoma cells is investigated by C57BL/6 female mouse. Anti-tumor effects and survival rates were investigated in tumor-bearing mice.\nTo evaluate the anti-tumor effects of DMMC/PTX complex, tumor-bearing mice were prepared by inoculating B16F10 melanoma cells S.C onto the back of C57BL/6 female mouse (2.0×10^6 cells/mouse). At average 1885 mm^3 of tumor volume, 12 days after inoculation, paclitaxel (PTX), DMMC/PTX4 (particle size 50 nm), DMMC/PTX5 (particle size 290 nm), and […] were administrated by I.P. injection three times (at a dose of 10 mg PXL/kg, on days 12, 14, and 16). Tumor size was measured with a digital vernier caliper and the volume was calculated using the relation V (mm^3)=(a×b^2)/2 where a is the longer, and b is the shorter diameter. The survival periods also monitored at 2 day intervals.\nThe tumor growth inhibitory activities were evaluated using B16F10 in xeno-graft tumor-bearing C57BL/6 mice. The tumors rapidly grew in size when the mice were treated with saline and PTX. […] The mean tumor volumes increase rate in the PTX, […], DDMC/PTX4 and DDMC/PTX5 groups were 1.85, 1.84, 1.39 and 1.53, respectively."}, "[3]": {"conditions": "I.P. three times, 10 mg PXL/kg on days 12, 14, 16, B16F10 tumor-bearing C57BL/6 mice"}}, "data": [{"compound": "CC(=O)O[C@H]1C(=O)[C@@]2(C)[C@H]([C@H](OC(=O)c3ccccc3)[C@]3(O)C[C@H](OC(=O)[C@H](O)[C@@H](NC(=O)c4ccccc4)c4ccccc4)C(C)=C1C3(C)C)[C@]1(OC(C)=O)CO[C@@H]1C[C@@H]2O", "note": "[control 1, paclitaxel]", "values": [{"measurement": "IC50", "setting": "[1]; Mus musculus, NIH3T3, 50 h, read-out: IC50 (μg/ml), MTT", "result": 3, "unit": "µg/mL"}]}, {"compound": "CC(=O)O[C@H]1C(=O)[C@@]2(C)[C@H]([C@H](OC(=O)c3ccccc3)[C@]3(O)C[C@H](OC(=O)[C@H](O)[C@@H](NC(=O)c4ccccc4)c4ccccc4)C(C)=C1C3(C)C)[C@]1(OC(C)=O)CO[C@@H]1C[C@@H]2O", "note": "[control 2, paclitaxel]", "values": [{"measurement": "IC50 (μg/ml), MTT", "setting": "[1]", "result": 4.5, "unit": "µg/mL"}]}, {"compound": "paclitaxel [PTX]", "values": [{"measurement": "mean tumor volumes increase rate", "setting": "[2]; [3]", "result": 1.85}, {"measurement": "median survival time (50%, MST)", "setting": "[2]; [3]", "result": 176, "unit": "h"}, {"measurement": "T/C of median survival time", "setting": "[2]; relative to serine (saline) group = 1.0", "result": 1.46}]}]}
